Measurements: US20090082713A1, “METHOD OF ENHANCING IONTOPHORETIC DELIVERY OF A PEPTIDE” (priority 2007, published 2009)
Read-outs that look alike come from different tables or passages of the source.

Experiments:
[1] = In vivo iontophoretic delivery of salmon calcitonin across skin microporated with maltose microneedles, serum SCT by ELISA; parameters: species or system hairless rat; conditions: for increase in concentration compared to delivery with microneedles alone: p<0.05; for increase in concentration compared to delivery with microneedles alone / Cmax / total amount of SCT delivered: hairless rat; for Cmax: hairless, rat, serum, topical or ocular, 350 µg, read-out: maximum concentration of SCT in the serum; for total amount of SCT delivered: calculated by WinNonlin
Method: • Purpose: To determine the effect of iontophoresis and its combination with microneedles on the in vivo delivery of salmon calcitonin (SCT) as a model peptide. • Methods: Microneedles, iontophoresis and the combination were investigated for their effect on the transdermal delivery of SCT in vivo using the hairless rat. SCT (350 μl of a 1 mg/ml solution in 50 mM citrate buffer, pH 4.0) was placed in a cartridge designed for iontophoresis. Maltose microneedles (500 micron, Texmac Inc.), stacked in three layers, were used to porate the skin prior to the application of the drug with or without iontophoresis. […] Transport of drug across the skin was assessed by collecting blood samples at regular intervals via the tail vein which were analyzed for serum SCT using ELISA. • Results: The maximum concentrations of SCT in the serum were 41.45 pg/ml, 605.21 pg/ml, and 2374.06 pg/ml under microneedles alone, 1 hr iontophoresis alone, and the combination, respectively. When compared to the delivery with microneedles alone, the increase in concentration with iontophoresis alone was 15-fold (p<0.05) and with the combination of microneedles the increase was 57-fold (p<0.05). The total amount of SCT delivered by iontophoresis and its combination with microneedles in the hairless rat was 648.67 ng/kg and 3075.96 ng/kg, respectively, as calculated by WinNonlin. • Conclusion: Iontophoresis or a disruption of the skin barrier by microneedles enabled the transdermal delivery of SCT.

[2] = In vivo delivery of salmon calcitonin using iontophoresis in combination with microporation using titanium needle arrays; parameters: species or system hairless rat; conditions: titanium needle array microporation in combination with iontophoresis; 0.5 minutes after administration; FIG. 1C

CC(C)C[C@H](NC(=O)[C@H](CCCCN)NC(=O)CNC(=O)[C@H](CC(C)C)NC(=O)[C@@H](NC(=O)[C@@H]1CSSC[C@H](N)C(=O)N[C@@H](CO)C(=O)N[C@@H](CC(N)=O)C(=O)N[C@@H](CC(C)C)C(=O)N[C@@H](CO)C(=O)N[C@@H]([C@@H](C)O)C(=O)N1)C(C)C)C(=O)N[C@@H](CO)C(=O)N[C@@H](CCC(N)=O)C(=O)N[C@@H](CCC(=O)O)C(=O)N[C@@H](CC(C)C)C(=O)N[C@@H](Cc1c[nH]cn1)C(=O)N[C@@H](CCCCN)C(=O)N[C@@H](CC(C)C)C(=O)N[C@@H](CCC(N)=O)C(=O)N[C@H](C(=O)N[C@@H](Cc1ccc(O)cc1)C(=O)N1CCC[C@H]1C(=O)N[C@@H](CCCNC(=N)N)C(=O)N[C@H](C(=O)N[C@@H](CC(N)=O)C(=O)N[C@H](C(=O)NCC(=O)N[C@@H](CO)C(=O)NCC(=O)N[C@H](C(=O)N1CCC[C@H]1C(N)=O)[C@@H](C)O)[C@@H](C)O)[C@@H](C)O)[C@@H](C)O [SCT, salmon calcitonin]
increase in concentration compared to delivery with microneedles alone ([1]; combination of iontophoresis and microneedles vs microneedles alone): 57 fold
Cmax ([1]; pH 4, transdermal, 1 hr iontophoresis alone (0.2 mA/cm^2), 350 μl of 1 mg/ml SCT, pH 4.0): 0.605 ng/mL
Cmax ([1]; pH 4, transdermal, maltose microneedles alone, 350 μl of 1 mg/ml SCT in 50 mM citrate buffer pH 4.0): 0.0415 ng/mL
Cmax ([1]; transdermal, combination of maltose microneedles and 1 hr iontophoresis (0.2 mA/cm^2)): 2.37 ng/mL
increase in concentration compared to delivery with microneedles alone ([1]; iontophoresis alone vs microneedles alone): 15 fold
total amount of SCT delivered ([1]; iontophoresis alone): 648.67 ng/kg
total amount of SCT delivered ([1]; iontophoresis in combination with microneedles): 3075.96 ng/kg
increase in amount of protein that permeated the skin compared to iontophoresis alone ([1]; microneedle treatment combined with iontophoresis vs iontophoresis alone, hairless rat model): about four
plasma concentration of SCT relative to microporation or iontophoresis alone [2]: about 10 fold
